According to BindingDB's records for doi:10.1016/j.bmcl.2018.11.028 (Kumamoto University, 2019):

Legend:
[1] = Inhibition of 20s constitutive proteasome beta1 caspase-like activity in human erythrocytes using […] as substrate preincubated for 10 mins followed by substrate addition and measured after 6 hrs by fluorescence assay
[2] = Inhibition of 20s constitutive proteasome beta2 trypsin-like activity in human erythrocytes using Boc-Leu-Arg-Arg-MCA as substrate preincubated for 10 mins followed by substrate addition and measured after 6 hrs by fluorescence assay

| IC50 [1] [µM] | IC50 [2] [µM] | SMILES |
| --- | --- | --- |
| 4.7 |  | C1=C\CCc2cc3c[n+](c2)CCCC/C=C\CC[C@@H]2CN(CCCC/1)CC[C@@H]32 |
| 0.48 | 6.3 | C1=C2CN3CCCC/C=C\CC[C@@H]4CN(CCCC/C=C\CC[C@H]1C3)CC[C@@H]24 |
